Experiments:
asthma model mice = experiment: Anti-asthma pharmacodynamic experiment: airway hyperresponsiveness (Penh) after methacholine challenge; type: in vivo, female BALB/c mice; conditions: for Penh values in mice, Methacholine concentration (mg/ml) 0 / Penh values in mice, Methacholine concentration (mg/ml) 6.25 / Penh values in mice, Methacholine concentration (mg/ml) 12.5: 0.3 mg/mL, 50 µL intratracheally once daily for 3 days; for Penh values in mice, Methacholine concentration (mg/ml) 0: methacholine 0 mg/ml; for Penh values in mice, Methacholine concentration (mg/ml) 6.25: methacholine 6.25 mg/ml; for Penh values in mice, Methacholine concentration (mg/ml) 12.5: methacholine 12.5 mg/ml
Method: Pharmacological Example 4: Pharmacodynamic Experiment on Anti-Asthma
The suspensions were stored at room temperature protected from light until use.
Positive control drug: Budesonide Suspension for Inhalation (specification: 2 mL: 1 mg; AstraZeneca Inc.; Lot No. : 327392) was diluted with injection-grade sodium chloride solution to 0.3 mg/ml as the positive control drug, and stored at room temperature protected from light until use.
Sixty female BALB/c mice underwent a one-week adaptive feeding period. Ten mice were randomly selected as the blank control group, while 50 mice were selected to establish asthma models.
From days 21 to 23 after sensitization, the mice in the model group and drug administration group were exposed to a 30-minute aerosol challenge with 5% OVA, while the mice in the blank control group were exposed to normal saline aerosol for the same duration.
Airway responsiveness was measured in all groups of mice after the last challenge. The mice were placed into a plethysmography chamber, and baseline Penh values were recorded. Subsequently, the mice were challenged with aerosolized methacholine at concentrations from low to high of 0, 6.25, and 12.5 mg/mL, with an aerosol volume of 100 µ L each time for 60 s. […] Penh values were then recorded for 3 min and averaged to compare the airway responsiveness of each group of mice.
(§6) Statistical analysis was performed using SPSS software. Measurement data were expressed as mean ± standard deviation. One-way ANOVA was used for intergroup comparisons. For data with homogeneous variance, LSD test was used; for data with heterogeneous variance, Dunnett-t test was used. A value of P < 0.05 was considered statistically significant.

[1] = tested on: inflammatory cytokines IL-6 and IL-12; experiment: Anti-asthma pharmacodynamic experiment: inflammatory cytokines in bronchoalveolar lavage fluid (ELISA); type: in vivo, female BALB/c mice; conditions: for IL-6 / IL-12: bronchoalveolar lavage fluid, 0.3 mg/mL, 50 µL intratracheally once daily for 3 days
[2] = molecular target: T1, mineralocorticoid receptor (MR) (Homo sapiens, UniProt P08235); experiment: Assay for agonist activity on mineralocorticoid receptor (luciferase reporter, HEK293 cells transfected with pBIND-MR plasmid); type: cell-based; conditions: EC50 of agonist activity, HEK293 reporter cells, top concentration 50 µM; read-out: Nuclear receptor enzyme activity (nM) MR
T1 sequence (P08235 726-984): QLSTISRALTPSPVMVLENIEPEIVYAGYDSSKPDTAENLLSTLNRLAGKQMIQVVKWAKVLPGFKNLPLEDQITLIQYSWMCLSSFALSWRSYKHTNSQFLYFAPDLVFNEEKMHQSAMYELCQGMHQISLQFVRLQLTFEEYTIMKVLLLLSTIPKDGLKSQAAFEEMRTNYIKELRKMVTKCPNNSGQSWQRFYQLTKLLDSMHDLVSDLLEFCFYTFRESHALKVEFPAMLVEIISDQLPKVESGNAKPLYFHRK
Method: (§1) Pharmacological Example 2: Assay for Agonist Activity on Mineralocorticoid Receptor (MR) and Progesterone Receptor (PR)
(§2) Test compound stock solutions: The test compounds (compounds 4, 5, 7, 8, 9, 11, 13, 16, 17, 18, 22, 23, 24, 34, 35, 36, 38, 41, 45, 47, 53, 55, and 59) were accurately weighed, dissolved in DMSO to prepare stock solutions at a concentration of 20 mM, and stored at -20 °C.
(§3) The test compounds were subjected to a 4-fold serial dilution starting from an initial concentration of 50 µ M, generating a 12-point concentration gradient with duplicate wells for each concentration. The blank control consisted of 0.1% DMSO.
(§4) The HEK293 stable cell lines […] transfected with mineralocorticoid receptor (MR) and progesterone receptor (PR) (ICE Bioscience, Lot No. TYP-20220819, TPJ-20220812) were cultured in Dulbecco's Modified Eagle Medium (DMEM) supplemented with 10% fetal bovine serum (FBS) and 200 µ g/ml Hygromycin B in a cell incubator containing 5% CO2 at 37 °C. The spent medium was aspirated, and the cells were washed once with phosphate-buffered saline (PBS). Then, 1 mL of TrypLE™ Express solution was added, and the cells were incubated at 37 °C for approximately 2 min. When the cells detached from the bottom of the cell culture dish, approximately 5 mL of pre-warmed complete medium at 37 °C was added. The cell suspension was gently pipetted with a pipette to dissociate clumped cells. The cell suspension was transferred to a sterile centrifuge tube and centrifuged at 1000 rpm for 5 min to pellet the cells for experiments or subculture..
(§5) HEK293 cells were digested and seeded into 6-cm culture dishes. The pBIND-MR and pBIND-PR plasmids were separately transfected into the HEK293 cells using a transfection reagent, resulting in HEK293 cells successfully transfected with the pBIND-MR and pBIND-PR plasmids, respectively. The cells were resuspended in phenol red-free DMEM medium containing 5% charcoal-stripped serum, counted, and then seeded into 96-well plates. The test compounds were added, and the plates were then incubated in an incubator. The luminescence signal values were measured using a multimode microplate reader following the instructions of the luciferase assay kit. The EC50 values of each test compound were calculated using the nonlinear fitting formula with GraphPad Prism 8.0 software.

[3] = molecular target: T2, progesterone receptor (PR) (Homo sapiens, UniProt P06401); experiment: Assay for agonist activity on progesterone receptor (luciferase reporter, HEK293 cells transfected with pBIND-PR plasmid); type: cell-based; conditions: EC50 of agonist activity, HEK293 reporter cells, top concentration 50 µM; read-out: Nuclear receptor enzyme activity (nM) PR
T2 sequence (P06401 678-933): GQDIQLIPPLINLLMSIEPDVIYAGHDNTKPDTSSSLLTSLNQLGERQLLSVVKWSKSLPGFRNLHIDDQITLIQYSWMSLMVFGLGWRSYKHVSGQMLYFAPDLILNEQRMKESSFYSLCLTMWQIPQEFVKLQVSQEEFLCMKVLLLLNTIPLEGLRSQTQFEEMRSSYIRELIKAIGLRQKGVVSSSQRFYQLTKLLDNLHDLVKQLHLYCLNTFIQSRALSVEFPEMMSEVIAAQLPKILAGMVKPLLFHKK
Method: as §1, §2, §3, §4, §5

[4] = tested on: dry eye syndrome model New Zealand rabbits; experiment: Dry eye syndrome experiment (benzalkonium chloride model): corneal fluorescein sodium staining; type: in vivo, male New Zealand White rabbits
Method: Pharmacological Example 6: Therapeutic Pharmacodynamic Experiment on Dry Eye Syndrome in New Zealand Rabbits
(§7) Positive control drug: Fluorometholone Eye Drops (specification: 5 mL/5 mg; Santen Pharmaceutical (CHINA) Co., Ltd.; Lot No.: 1FM6625) was used as the positive control drug and stored at room temperature protected from light until use.
Thirty male New Zealand White rabbits (conventional grade) were prepared. Six rabbits were randomly selected as the blank control group, and the remaining animals were administered 0.1% benzalkonium chloride to the left eye twice daily (morning and evening) , 10 µL/animal each time. […] During the administration, all animals except the blank control group were administered 10 µL of 0.1% benzalkonium chloride to the left eye once daily to maintain dry eye symptoms..
• Test time: D3, D7, D15; • Test animals: All animals were tested before grouping; all enrolled surviving animals were tested after administration; • Test method: 2 µL of 1% Fluorescein sodium was dropped into the conjunctival sac. After 5 s, the excess fluorescein was rinsed with 0.9% normal saline. The conjunctival staining was observed under a slit lamp with cobalt blue diffused light.
(§8) The normality and homogeneity of variance were tested by Levene's test. If there was no statistical significance (P > 0.05), one-way analysis of variance (ANOVA) was used for statistical analysis. If ANOVA was statistically significant (P ≤ 0.05), LSD test (parametric method) was used for comparative analysis. If the variance was heterogeneous (P ≤ 0.05), Kruskal-Wallis test was used. If the Kruskal-Wallis test was statistically significant (P ≤ 0.05), Dunnett's test (nonparametric method) was used for comparative analysis.

[5] = tested on: intraocular pressure of guinea pigs; experiment: Adverse reactions of continuous ocular administration: intraocular pressure; type: in vivo; conditions: for Intraocular pressure of guinea pigs (mmHg) D0: D0, before administration; for Intraocular pressure of guinea pigs (mmHg) D0 / Intraocular pressure of guinea pigs (mmHg) D7 / Intraocular pressure of guinea pigs (mmHg) D14 / Intraocular pressure of guinea pigs (mmHg) D21 / Intraocular pressure of guinea pigs (mmHg) D28: 50 µL/eye (compounds and fluorometholone 1 mg/mL, loteprednol 5 mg/mL)
Method: Pharmacological Example 9: Experiment on Adverse Reactions of Continuous Ocular Administration in Guinea Pigs
Test samples: Compounds 17 and 23 were prepared as 5 mg/5 mL ophthalmic suspensions with reference to the formulation of Fluorometholone Eye Drops, and stored at room temperature protected from light until use.
Positive control drug: Fluorometholone Eye Drops (specification: 5 mL/5 mg; Santen Pharmaceutical (CHINA) Co., Ltd.; Lot No.: 1FM6545), Loteprednol Etabonate Eye Drops (specification 0.5% (5 mg/mL); Shandong Bausch & Lomb Freda Pharmaceutical Co., Ltd; Lot No. 386521), stored at room temperature protected from light until use.
Animals: 50 guinea pigs, conventional grade, with an equal number of males and females, weighing 300-350 g..
Animal grouping: After 5 days of adaptive feeding, the guinea pigs were randomly divided into 5 groups based on body weight. Group 1 was the blank control group, and 50 µL of normal saline was dropped into the eyes (bilateral) of the guinea pigs. Groups 2 to 5 were the fluorometholone group, loteprednol group, compound 17 group, and compound 23 group, respectively, and the corresponding drugs were dropped into the eyes (bilateral) of the guinea pigs. Table 19. Animal grouping and drug administration dosages for the experiment on adverse reactions of continuous ocular administration in guinea pigs
Intraocular pressure measurement time: The intraocular pressure of animals in each group was measured before administration and on days 7, 14, 21, and 28 post-administration.

[6] = tested on: dry eye syndrome model New Zealand rabbits; experiment: Dry eye syndrome experiment (benzalkonium chloride model): tear film break-up time; type: in vivo, male New Zealand White rabbits
uveitis model rats = experiment: Anti-uveitis pharmacodynamic experiment (LPS model): ocular pathological score; type: in vivo, male SD rats
Method: Pharmacodynamic Experiment on Anti-Uveitis
Positive control drug: Fluorometholone Eye Drops (specification: 5 mL/5 mg; Santen Pharmaceutical (CHINA) Co., Ltd.; Lot No. : J20180068) was used as the positive control drug and stored at room temperature protected from light until use.
Fifty male SD rats underwent a one-week adaptive feeding period. […] Groups 2 to 5 were used to establish rat uveitis models by single subcutaneous injection of 1 mg/kg LPS (Salmonella; Sigma; Lot No. 0000164114) into the plantar tissue of the hindpaw. Salmonella endotoxin was dissolved in normal saline to prepare an injection solution at a concentration of 2 mg/mL, which was injected subcutaneously at 1 mg/kg into the plantar tissue of one paw of the rats. Group 1 was injected with an equal volume of normal saline.
At the end of the experiment, photos of the rats' eyes were taken using a slit-lamp microscope, and the differences in ocular lesions of rats among groups were compared and analyzed.
as §6

[7] = tested on: dry eye syndrome model New Zealand rabbits; experiment: Dry eye syndrome experiment (benzalkonium chloride model): tear secretion test with phenol red cotton threads; type: in vivo, male New Zealand White rabbits
Method: as §7
Thirty male New Zealand White rabbits (conventional grade) were prepared. Six rabbits were randomly selected as the blank control group, and the remaining animals were administered 0.1% benzalkonium chloride to the left eye twice daily (morning and evening) , 10 µL/animal each time. On day 6 of modeling, tear secretion was measured using phenol red cotton threads to determine whether the model was successfully established. […] During the administration, all animals except the blank control group were administered 10 µL of 0.1% benzalkonium chloride to the left eye once daily to maintain dry eye symptoms..
• Test time: D3, D7, D15; • Test animals: All animals were tested before grouping; all enrolled surviving animals were tested after administration; • Test method: Tear secretion was measured using phenol red cotton threads. The tear secretion test paper was folded and placed at the middle and outer 1/3 of the rabbit palpebral conjunctival sac for 1 min. The test paper was then removed, observed, and recorded for its wetting length. The test was repeated 3 times, and the values were averaged.
as §8

[8] = D3, 1 mg/mL, 50 µL/eye, 3 times a day for 14 days
[9] = D7, 1 mg/mL, 50 µL/eye, 3 times a day for 14 days
[10] = D15, 1 mg/mL, 50 µL/eye, 3 times a day for 14 days

SMILES	Penh values in mice, Methacholine concentration (mg/ml) 0 (asthma model mice)	Penh values in mice, Methacholine concentration (mg/ml) 6.25 (asthma model mice)	Penh values in mice, Methacholine concentration (mg/ml) 12.5 (asthma model mice)	IL-6 [1]	IL-12 [1]	intraocular pressure after continuous ocular administration [5]	Intraocular pressure of guinea pigs (mmHg) D0 [5]	Intraocular pressure of guinea pigs (mmHg) D7 [5]	Intraocular pressure of guinea pigs (mmHg) D14 [5]	Intraocular pressure of guinea pigs (mmHg) D21 [5]	Intraocular pressure of guinea pigs (mmHg) D28 [5]	other results
CCCC1O[C@@H]2C[C@H]3[C@@H]4CCC5=CC(=O)C=C[C@]5(C)[C@H]4[C@@H](O)C[C@]3(C)[C@]2(C(=O)CO)O1 (some centres unmarked) [Budesonide, reference compound]	1.12 ± 0.30	1.65 ± 0.29	2.14 ± 0.38	21.5 ± 6.8 pg/mL	17.5 ± 4.9 pg/mL							
C[C@]12C=CC(=O)C=C1[C@@H](F)C[C@H]1[C@@H]3C[C@H]4OC(c5ccc(CSC6COC(=O)C6)cc5)O[C@@]4(C(=O)CO)[C@@]3(C)C[C@H](O)[C@@]12F (stereo partly drawn) [Compound 11, (2S,6aS,6bR,7S,8aS,8bS,11aR,12aS,12bS)-2,6b-Difluoro-7-hydroxy-8b-(2-hydroxyacetyl)-6a,8a-dimethyl-10-(4-(((5-oxotetrahydrofuran-3-yl)thio)methyl)phenyl)-1,2,6a,6b,7,8,8a,8b,11a,12,12a, 12b-dodecahydro-4H-naphtho[2',1':4,5]indeno[1,2-d][1,3]dioxol-4-one]	1.08 ± 0.18	1.45 ± 0.31	1.92 ± 0.34	16.3 ± 7.9 pg/mL	11.1 ± 3.7 pg/mL							Effects on airway hyperresponsiveness (Penh values) in mice (asthma model mice; compared with the model group): significantly decreased the Penh values in mice; EC50 [2]: > 50000 nM; EC50 [3]: > 50000 nM; Effects on inflammatory cytokines in bronchoalveolar lavage fluid of mice ([1]; compared with the model group): extremely significantly decreased the levels of IL-6 and IL-12 in mice
CC(=O)[C@@]1(O)CC[C@H]2[C@@H]3C[C@H](C)C4=CC(=O)C=C[C@]4(C)[C@@]3(F)[C@@H](O)C[C@@]21C [Fluorometholone, reference compound]						intraocular pressure elevation was detected on day 7	14.3 ± 1.5 mmHg	20.5 ± 3.3 mmHg	21.2 ± 2.1 mmHg	23.0 ± 3.1 mmHg	22.5 ± 2.1 mmHg	Corneal fluorescein sodium staining score D3 [4, 8]: 1.67 ± 0.82; Corneal fluorescein sodium staining score D7 [4, 9]: 1.17 ± 0.41; Corneal fluorescein sodium staining score D15 [4, 10]: 1.0 ± 0; inflammatory response on the ocular surface / ocular symptoms ([4]; compared with the model group): significantly inhibited the inflammatory response on the ocular surface on day 15; Tear film break-up time (s) D3 [6, 8]: 43.17 ± 14.47 s; Tear film break-up time (s) D7 [6, 9]: 47.33 ± 16.37 s; Tear film break-up time (s) D15 [6, 10]: 51.33 ± 13.44" s; tear film break-up time ([6]; compared with the model group): significantly increased the tear film break-up time on day 15; Ocular pathological score (uveitis model rats; 1 mg/mL, 40 µL/eye, 3 times a day for 2 days): 7.1 ± 0.7; ocular abnormalities / ocular pathological score (uveitis model rats; compared with the model group): significantly improved the ocular abnormalities and reduced the ocular pathological score; Wetting length of phenol red cotton threads (mm) D0 ([7]; D0, 1 mg/mL, 50 µL/eye, 3 times a day for 14 days): 26.35 ± 5.52 mm; Wetting length of phenol red cotton threads (mm) D3 [7, 8]: 29.45 ± 5.48' mm; Wetting length of phenol red cotton threads (mm) D7 [7, 9]: 30.41 ± 5.29" mm; Wetting length of phenol red cotton threads (mm) D15 [7, 10]: 32.26 ± 3.69 mm; tear secretion ([7]; compared with the model group): significantly increased the tear secretion on day 15
CCOC(=O)O[C@]1(C(=O)OCCl)CC[C@H]2[C@@H]3CCC4=CC(=O)C=C[C@]4(C)[C@H]3[C@@H](O)C[C@@]21C [Loteprednol, Loteprednol Etabonate, reference compound]						intraocular pressure elevation was detected on day 7	14.0 ± 1.8 mmHg	19.0 ± 3.5 mmHg	18.5 ± 1.5 mmHg	18.5 ± 0.7 mmHg	19.5 ± 0.6 mmHg	
